Assay results from patent publication US9499550B2 (BRISTOL-MYERS SQUIBB COMPANY, priority 2012, dated 2016).
Read-outs that look alike come from different tables or passages of the source.

Experiments:
[1] = tested on: HCV genotype 1a (H77 strain) replicon in HUH-7 cells; experiment: HCV replicon luciferase reporter assay, genotype 1a; type: cell-based; conditions: Hepatitis C virus, Huh-7, 72 h, 3 days incubation
Outline: (§1)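 Replicon inhibition for both genotypes was measured as Renilla luciferase signal (EnduRen, 7.5 μM final, 2 h) after 3-day, 37° C exposure of replicon-bearing HUH-7 cells in 4% FCS DMEM, 0.5% DMSO. The 1b construct carries S1179I; the 1a H77 construct carries P1496L and S2204I. Twenty-point, 3-fold dilutions were fitted four-parametrically for EC50, and CC50 was taken from multiplexed Cell Titer-Blue.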

[2] = tested on: HCV genotype 1b (Con1) replicon in HUH-7 cells; experiment: HCV replicon luciferase reporter assay, genotype 1b; type: cell-based; conditions: Hepatitis C virus, Huh-7, 72 h, 3 days incubation
Outline: as §1

[3] = HCV genotype 1a replicon luciferase assay, range class, read-out: LE_1a (EC50, range)
[4] = HCV genotype 1b replicon luciferase assay, range class, read-out: LE_1b (EC50, range)
[5] = HCV genotype 1a replicon luciferase, read-out: LE_1a (EC50, range)
[6] = HCV genotype 1b replicon luciferase, read-out: LE_1b (EC50, range)
[7] = GETYPE1A, HCV genotype 1a replicon luciferase, read-out: LE_1a (EC50, range)
[8] = GETYPE1B, HCV genotype 1b replicon luciferase, read-out: LE_1b (EC50, range)

Row | SMILES | EC50 [1, 5] [nM] | EC50 [2, 6] [nM] | also measured
1 | CC[C@@H]1C[C@H](C)CC/C=C\[C@@H]2C[C@@]2(C(=O)NS(=O)(=O)C2(C)CC2)NC(=O)[C@@H]2C[C@@H](Oc3nc(OC)cc4cc(OC)ccc34)CN2C(=O)[C@H]1NC(=O)OC(C)(C)C(F)(F)F [Compound 1120, 1,1,1-trifluoro-2-methylpropan-2-yl((2R,6S,7R,9R,13aS,14aR,16aS,Z)-2-((3,6-dimethoxyisoquinolin-1-yl)oxy)-7-ethyl-9-methyl-14a-(((1-methylcyclopropyl)sulfonyl)carbamoyl)-5,16-dioxo-1,2,3,5,6,7,8,9,10,11,13a,14,14a,15,16,16a-hexadecahydrocyclopropa[e]pyrrolo[1,2-a][1,4]diazacyclopentadecin-6-yl)carbamate] |  |  | EC50 [1, 3]: < 5.46 nM; EC50 [2, 4]: < 5.46 nM
2 | COc1ccc2c(O[C@@H]3C[C@H]4C(=O)N[C@]5(C(=O)NS(=O)(=O)C6(CF)CC6)C[C@H]5/C=C\CC[C@@H](C)C[C@@H](C)[C@H](NC(=O)OC(C)(C)C(F)(F)F)C(=O)N4C3)ncc(N3CCOCC3)c2c1 [Compound 4120] | < 5.46 | < 5.46 | 
3 | COc1cc(F)cc2c(O[C@@H]3C[C@H]4C(=O)N[C@]5(C(=O)NS(=O)(=O)C6(C)CC6)C[C@H]5/C=C\CC[C@H](C)C[C@@H](C)[C@H](NC(=O)O[C@@H]5C[C@@H]6C[C@@H]6C5)C(=O)N4C3)nccc12 [Compound 3159, (1R,3r,5S)-bicyclo[3.1.0]hexan-3-yl((2R,6S,7R,9S,13aS,14aR,16aS,Z)-2-((7-fluoro-5-methoxyisoquinolin-1-yl)oxy)-7,9-dimethyl-14a-(((1-methylcyclopropyl)sulfonyl)carbamoyl)-5,16-dioxo-1,2,3,5,6,7,8,9,10,11,13a,14,14a,15,16,16a-hexadecahydrocyclopropa[e]pyrrolo[1,2-a][1,4]diazacyclopentadecin-6-yl)carbamate] |  |  | EC50 [1, 3]: 4.82 to 103 nM; EC50 [2, 4]: < 5.46 nM
4 | CCOc1nnc(O[C@@H]2C[C@H]3C(=O)N[C@]4(C(=O)NS(=O)(=O)C5(C)CC5)C[C@H]4/C=C\CC[C@@H](C)C[C@@H](CC)[C@H](NC(=O)OC(C)(C)C)C(=O)N3C2)c2ccccc12 [Compound 5047, tert-butyl ((2R,6S,7R,9R,13aS,14aR,16aS,Z)-2-((4-ethoxyphthalazin-1-yl)oxy)-7-ethyl-9-methyl-14a-(((1-methylcyclopropyl)sulfonyl)carbamoyl)-5,16-dioxo-1,2,3,5,6,7,8,9,10,11,13a,14,14a,15,16,16a-hexadecahydrocyclopropa[e]pyrrolo[1,2-a][1,4]diazacyclopentadecin-6-yl)carbamate] | < 5.46 | < 5.46 | 
5 | COc1cc2ccnc(O[C@@H]3C[C@H]4C(=O)N[C@]5(C(=O)NS(=O)(=O)C6(CF)CC6)C[C@H]5/C=C\CC[C@H](C)C[C@@H](C)[C@H](NC(=O)OC(C)(C)C(F)(F)F)C(=O)N4C3)c2cc1F [Compound 1186] |  |  | EC50 [1, 7]: 5.01 to 35 nM; EC50 [2, 8]: 1.01 to 5 nM
6 | CCOc1ccc2c(O[C@@H]3C[C@H]4C(=O)N[C@]5(C(=O)NS(=O)(=O)C6(C)CC6)C[C@H]5/C=C\CC[C@H](C)C[C@@H](C)[C@H](NC(=O)NC(C)(C)C(F)(F)F)C(=O)N4C3)nccc2c1 [Compound 5143, (2R,6S,7R,9S,13aS,14aR,16aS,Z)-2-((6-ethoxyisoquinolin-1-yl)oxy)-7,9-dimethyl-N-((1-methylcyclopropyl)sulfonyl)-5,16-dioxo-6-(3-(1,1,1-trifluoro-2-methylpropan-2-yl)ureido)-1,2,3,5,6,7,8,9,10,11,13a,14,14a,15,16,16a-hexadecahydrocyclopropa[e]pyrrolo[1,2-a][1,4]diazacyclopentadecine-14a-carboxamide] | 4.82 to 103 | < 5.46 | 
7 | COc1cnc(O[C@@H]2C[C@H]3C(=O)N[C@]4(C(=O)NS(=O)(=O)C5(F)CC5)C[C@H]4/C=C\CC[C@@H](C)C[C@@H](C)[C@H](NC(=O)OC(C)(C)C)C(=O)N3C2)c2cc(F)ccc12 [Compound 4045, tert-butyl (2R,6S,7R,9R,13aS,14aR,16aS,Z)-2-(7-fluoro-4-methoxyisoquinolin-1-yloxy)-14a-(1-fluorocyclopropylsulfonylcarbamoyl)-7,9-dimethyl-5,16-dioxo-1,2,3,5,6,7,8,9,10,11,13a,14,14a,15,16,16a-hexadecahydrocyclopropa[e]pyrrolo[1,2-a][1,4]diazacyclopentadecin-6-ylcarbamate] | < 5.46 | < 5.46 | 
8 | COCCOc1cnc(O[C@@H]2C[C@H]3C(=O)N[C@]4(C(=O)NS(=O)(=O)C5CC5)C[C@H]4/C=C\CC[C@@H](C)C[C@@H](C)[C@H](NC(=O)OC(C)(C)C(F)(F)F)C(=O)N3C2)c2ccc(OC)cc12 [Compound 1147, 1,1,1-trifluoro-2-methylpropan-2-yl((2R,6S,7R,9R,13aS,14aR,16aS,Z)-14a-((cyclopropylsulfonyl)carbamoyl)-2-((6-methoxy-4-(2-methoxyethoxyl)isoquinolin-1-yl)oxy)-7,9-dimethyl-5,16-dioxo-1,2,3,5,6,7,8,9,10,11,13a,14,14a,15,16,16a-hexadecahydrocyclopropa[e]pyrrolo[1,2-a][1,4]diazacyclopentadecin-6-yl)carbamate] |  |  | EC50 [1, 3]: < 5.46 nM; EC50 [2, 4]: < 5.46 nM
9 | CCn1nc(O[C@@H]2C[C@H]3C(=O)N[C@]4(C(=O)NS(=O)(=O)C5(C)CC5)C[C@H]4/C=C\CC[C@H](C)C[C@@H](C)[C@H](NC(=O)O[C@@H]4C[C@@H]5C[C@@H]5C4)C(=O)N3C2)c2ccccc2c1=O [Compound 5056, (1R,3r,5S)-bicyclo[3.1.0]hexan-3-yl((2R,6S,7R,9S,13aS,14aR,16aS,Z)-2-((3-ethyl-4-oxo-3,4-dihydrophthalazin-1-yl)oxy)-7,9-dimethyl-14a-(((1-methylcyclopropyl)sulfonyl)carbamoyl)-5,16-dioxo-1,2,3,5,6,7,8,9,10,11,13a,14,14a,15,16,16a-hexadecahydrocyclopropa[e]pyrrolo[1,2-a][1,4]diazacyclopentadecin-6-yl)carbamate] | > 87.4 | 4.82 to 103 | EC50 ([1]; HCV genotype 1a replicon luciferase, read-out: LE_1a (EC50)): 256 nM; EC50 ([2]; HCV genotype 1b replicon luciferase, read-out: LE_1b (EC50)): 61 nM
10 | C[C@@H]1CC/C=C\[C@@H]2C[C@@]2(C(=O)NS(=O)(=O)C2(C)CC2)NC(=O)[C@@H]2C[C@@H](Oc3nccc4c5c(ccc34)CCCO5)CN2C(=O)[C@@H](NC(=O)OC(C)(C)C(C)(F)F)[C@H](C)C1 [Compound 6060, 3,3-difluoro-2-methylbutan-2-yl((2R,6S,7R,9R,13aS,14aR,16aS,Z)-2-((3,4-dihydro-2H-pyrano[2,3-f]isoquinolin-7-yl)oxy)-7,9-dimethyl-14a-(((1-methylcyclopropyl)sulfonyl)carbamoyl)-5,16-dioxo-1,2,3,5,6,7,8,9,10,11,13a,14,14a,15,16,16a-hexadecahydrocyclopropa[e]pyrrolo[1,2-a][1,4]diazacyclopentadecin-6-yl)carbamate] | 1.01 to 5 | 1.01 to 5 | 
11 | CCOc1cnc(O[C@@H]2C[C@H]3C(=O)N[C@]4(C(=O)NS(=O)(=O)C5CC5)C[C@H]4/C=C\CC[C@@H](C)C[C@@H](CC)[C@H](NC(=O)OC(C)(C)C(F)(F)F)C(=O)N3C2)c2ccc(OC)cc12 [Compound 4249] |  |  | EC50 [1, 7]: 1.01 to 5 nM; EC50 [2, 8]: 0.51 to 1 nM
12 | COc1cnc(O[C@@H]2C[C@H]3C(=O)N[C@]4(C(=O)NS(=O)(=O)C5(CF)CC5)C[C@H]4/C=C\CC[C@@H](C)C[C@@H](C)[C@H](NC(=O)OC4(C(F)(F)F)CCOCC4)C(=O)N3C2)c2ccccc12 [Compound 1048, 4-(trifluoromethyl)tetrahydro-2H-pyran-4-yl((2R,6S,7R,9R,13aS,14aR,16aS,Z)-14a-(((1-(fluoromethyl)cyclopropyl)sulfonyl)carbamoyl)-2-((4-methoxyisoquinolin-1-yl)oxy)-7,9-dimethyl-5,16-dioxo-1,2,3,5,6,7,8,9,10,11,13a,14,14a,15,16,16a-hexadecahydrocyclopropa[e]pyrrolo[1,2-a][1,4]diazacyclopentadecin-6-yl)carbamate] |  |  | EC50 [1, 3]: < 5.46 nM; EC50 [2, 4]: < 5.46 nM
13 | CCOc1ccc2c(O[C@@H]3C[C@H]4C(=O)N[C@]5(C(=O)NS(=O)(=O)C6(C)CC6)C[C@H]5/C=C\CC[C@@H](C)C[C@@H](C)[C@H](NC(=O)O[C@H](C)C(F)(F)F)C(=O)N4C3)nccc2c1 [Compound 5142, (R)-1,1,1-trifluoropropan-2-yl ((2R,6S,7R,9R,13aS,14aR,16aS,Z)-2-((6-ethoxyisoquinolin-1-yl)oxy)-7,9-dimethyl-14a-(((1-methylcyclopropyl)sulfonyl)carbamoyl)-5,16-dioxo-1,2,3,5,6,7,8,9,10,11,13a,14,14a,15,16,16a-hexadecahydrocyclopropa[e]pyrrolo[1,2-a][1,4]diazacyclopentadecin-6-yl)carbamate] | < 5.46 | < 5.46 | 
14 | CCOc1cnc(O[C@@H]2C[C@H]3C(=O)N[C@]4(C(=O)NS(=O)(=O)C5(C)CC5)C[C@H]4/C=C\CC[C@@H](C)C[C@@H](CC)[C@H](NC(=O)OC(C)(C)C)C(=O)N3C2)c2ccccc12 [Compound 4180, tert-butyl (2R,6S,7R,9R,13aS,14aR,16aS,Z)-2-(4-ethoxyisoquinolin-1-yloxy)-7-ethyl-9-methyl-14a-(1-methylcyclopropylsulfonylcarbamoyl)-5,16-dioxo-1,2,3,5,6,7,8,9,10,11,13a,14,14a,15,16,16a-hexadecahydrocyclopropa[e]pyrrolo[1,2-a][1,4]diazacyclopentadecin-6-ylcarbamate] | < 5.46 | < 5.46 | 
